The values that follow come from patent US6489320B1, “5, 5-disubstituted-1, 5-dihydro-4, 1-benzoxazepin-2 (3H)-ones useful as HIV reverse transcriptase inhibitors” (Bristol-Myers Squibb Pharma Company, priority 1997, dated 2002).

Each structure is given as a SMILES string. Values joined by “and” are separate entries in the source; they are usually repeats but may differ in a detail not shown here. Identical values can stand only once. Counter-ions that a name gives are not always drawn.

For `O=C1COC(C#Cc2ccccc2)(C(F)(F)F)c2cc(Cl)ccc2N1` (stereo not shown) (as salt: sodium) [Example 16, 7-Chloro-5-phenylethynyl-1,5-dihydro-5-(trifluoromethyl)-4,1-benzoxazepin-2(3H)-one], the melting point fell in the range of 190 to 191 °C.
For `CC[C@@H]1O[C@](C#Cc2ccoc2)(C(F)(F)F)c2cc(Cl)ccc2NC1=O` (relative stereo) (as salt: sodium) [Example 32, rel-(3S,5S)-7-Chloro-5-(3-furanylethynyl)-1,5-dihydro-3-ethyl-5-(trifluoromethyl)-4,1-benzoxazepin-2(3H)-one], the melting point lay within 169 to 170 °C.
With `C[C@@H]1O[C@](/C=C/C2CC2)(C(F)(F)F)c2cc(Cl)ccc2NC1=O` (relative stereo) [Example 6, rel-(3S,5S)-trans-7-Chloro-5-(2-cyclopropylethenyl)-1,5-dihydro-3-methyl-5-(trifluoromethyl)-4,1-benzoxazepin-2(3H)-one], the melting point was 171 to 172 °C.
For the compound `C[C@@H]1O[C@](/C=C/c2ccco2)(C(F)(F)F)c2cc(Cl)ccc2NC1=O` (relative stereo) [Example 9, rel-(3S,5S)-trans-7-Chloro-1,5-dihydro-5-(2-furan-2-ylethenyl)-3-methyl-5-(trifluoromethyl)-4,1-benzoxazepin-2(3H)-one], the melting point is 205 to 206.5 °C.
Next, `CCC[C@@H]1O[C@](C#CC2CC2)(C(F)(F)F)c2cc(Cl)ccc2NC1=O` (relative stereo) [Example 14a, rel-(3S,5S)-7-Chloro-5-cyclopropylethynyl-1,5-dihydro-3-propyl-5-(trifluoromethyl)-4,1-benzoxazepin-2(3H)-one]: 191 to 192 °C; `CCC[C@H]1O[C@](C#CC2CC2)(C(F)(F)F)c2cc(Cl)ccc2NC1=O` (relative stereo) [Example 14b, rel-(3R,5S)-7-Chloro-5-cyclopropylethynyl-1,5-dihydro-3-propyl-5-(trifluoromethyl)-4,1-benzoxazepin-2(3H)-one]: 141 °C.
Next, `CC(C)[C@@H]1O[C@](C#CC2CC2)(C(F)(F)F)c2cc(Cl)ccc2NC1=O` (relative stereo) [Example 15, rel-(3S,5S)-7-Chloro-5-cyclopropylethynyl-1,5-dihydro-3-isopropyl-5-(trifluoromethyl)-4,1-benzoxazepin-2(3H)-one]: 167 °C.
As for `CC[C@@H]1O[C@](C#CC2CC2)(C(F)(F)F)c2cc(Cl)ccc2NC1=O` (relative stereo) [Example 22, rel-(3S,5S)-7-Chloro-5-cyclopropylethynyl-1,5-dihydro-3-ethyl-5-(trifluoromethyl)-4,1-benzoxazepin-2(3H)-one], the figure is 180 to 181 °C; as for `CC[C@H]1O[C@](C#CC2CC2)(C(F)(F)F)c2cc(Cl)ccc2NC1=O` (relative stereo) [Example 23, rel-(3R,5S)-7-Chloro-5-cyclopropylethynyl-1,5-dihydro-3-ethyl-5-(trifluoromethyl)-4,1-benzoxazepin-2(3H)-one], 129 to 130 °C; as for `CCC[C@@H]1O[C@](/C=C/C2CC2)(C(F)(F)F)c2cc(Cl)ccc2NC1=O` (relative stereo) [Example 30, rel-(3S,5S)-trans-7-Chloro-5-(2-cyclopropylethenyl)-1,5-dihydro-3-propyl-5-(trifluoromethyl)-4,1-benzoxazepin-2(3H)-one], 165 to 167 °C and 167 °C.
Turning to `CC[C@@H]1O[C@](/C=C/C2CC2)(C(F)(F)F)c2cc(Cl)ccc2NC1=O` (relative stereo) [Example 38, rel-(3S,5S)-trans-7-Chloro-5-(2-cyclopropylethenyl)-1,5-dihydro-3-ethyl-5-(trifluoromethyl)-4,1-benzoxazepin-2(3H)-one], the melting point lay within 147 to 147.5 °C.
With `C=C[C@@H]1O[C@](/C=C/C2CC2)(C(F)(F)F)c2cc(Cl)ccc2NC1=O` (relative stereo) [Example 42, rel-(3S,5S)-trans-7-Chloro-5-(2-cyclopropylethenyl)-1,5-dihydro-3-ethenyl-5-(trifluoromethyl)-4,1-benzoxazepin-2(3H)-one], the melting point lay within 165.5 to 166.5 °C.
As for `O=C1Nc2ccc(Cl)cc2[C@@](/C=C/C2CC2)(C(F)(F)F)O[C@H]1C1CC1` (relative stereo) [Example 44, rel-(3S,5S)-trans-7-Chloro-5-(2-cyclopropylethenyl)-1,5-dihydro-3-cyclopropyl-5-(trifluoromethyl)-4,1-benzoxazepin-2(3H)-one], the figure is 143 to 144 °C; as for `C=C[C@@H]1O[C@](C#CC2CC2)(C(F)(F)F)c2c(ccc(F)c2F)NC1=O` (relative stereo) [Example 45, rel-(3S,5S)-6,7-Difluoro-5-(2-cyclopropylethynyl)-1,5-dihydro-3-ethenyl-5-(trifluoromethyl)-4,1-benzoxazepin-2(3H)-one], 171 to 172 °C; as for `O=C1Nc2ccc(F)c(F)c2[C@@](C#CC2CC2)(C(F)(F)F)O[C@H]1C1CC1` (relative stereo) [Example 46, rel-(3S,5S)-6,7-Difluoro-5-(2-cyclopropylethynyl)-1,5-dihydro-3-cyclopropyl-5-(trifluoromethyl)-4,1-benzoxazepin-2(3H)-one], 222 to 222.5 °C.
As for `C[C@@H]1O[C@](C#CC2CC2)(C(F)(F)F)c2cc(F)ccc2NC1=O` (relative stereo) [Example 48, rel-(3S,5S)-7-Fluoro-5-(2-cyclopropylethynyl)-1,5-dihydro-3-methyl-5-(trifluoromethyl)-4,1-benzoxazepin-2(3H)-one], the figure is 184 to 185 °C.
As for `CC[C@@H]1O[C@](C#CC2CC2)(C(F)(F)F)c2cc(F)ccc2NC1=O` (relative stereo) [Example 49, rel-(3S,5S)-7-Fluoro-5-(2-cyclopropylethynyl)-1,5-dihydro-3-ethyl-5-(trifluoromethyl)-4,1-benzoxazepin-2(3H)-one], the figure is 186 °C; as for `C[C@@H]1O[C@](/C=C/C2CC2)(C(F)(F)F)c2cc(F)ccc2NC1=O` (relative stereo) [Example 50, rel-(3S,5S)-trans-7-Fluoro-5-(2-cyclopropylethenyl)-1,5-dihydro-3-methyl-5-(trifluoromethyl)-4,1-benzoxazepin-2(3H)-one], 180 to 182 °C; as for `CC[C@@H]1O[C@](/C=C/C2CC2)(C(F)(F)F)c2cc(F)ccc2NC1=O` (relative stereo) [Example 51, rel-(3S,5S)-trans-7-Fluoro-5-(2-cyclopropylethenyl)-1,5-dihydro-3-ethyl-5-(trifluoromethyl)-4,1-benzoxazepin-2(3H)-one], 148 to 149 °C.
For the compound `C[C@@H]1O[C@](C#CC2CC2)(C(F)(F)F)c2c(ccc3c2OCO3)NC1=O` (relative stereo) [Example 52, rel-(3S,5S)-6,7-Methylenedioxy-5-(2-cyclopropylethynyl)-1,5-dihydro-3-methyl-5-(trifluoromethyl)-4,1-benzoxazepin-2(3H)-one], the melting point is 252 °C.
As for `CC[C@@H]1O[C@](C#CC2CC2)(C(F)(F)F)c2c(ccc3c2OCO3)NC1=O` (relative stereo) [Example 53, rel-(3S,5S)-6,7-Methylenedioxy-5-(2-cyclopropylethynyl)-1,5-dihydro-3-ethyl-5-(trifluoromethyl)-4,1-benzoxazepin-2(3H)-one], the figure is 201 to 202 °C.
As to `C[C@@H]1O[C@](/C=C/C2CC2)(C(F)(F)F)c2c(ccc3c2OCO3)NC1=O` (relative stereo) [Example 54, rel-(3S,5S)-trans-6,7-Methylenedioxy-5-(2-cyclopropylethenyl)-1,5-dihydro-3-methyl-5-(trifluoromethyl)-4,1-benzoxazepin-2(3H)-one], the melting point is 236 to 237 °C.
As for `CC[C@@H]1O[C@](/C=C/C2CC2)(C(F)(F)F)c2c(ccc3c2OCO3)NC1=O` (relative stereo) [Example 55, rel-(3S,5S)-trans-6,7-Methylenedioxy-5-(2-cyclopropylethenyl)-1,5-dihydro-3-ethyl-5-(trifluoromethyl)-4,1-benzoxazepin-2(3H)-one], the melting point is 188 to 190 °C.
Next, `CC(C)C#C[C@]1(C(F)(F)F)OCC(=O)Nc2ccc(Cl)cc21` (single isomer, unassigned) [Example 4]: 135 to 136 °C; `CCC#CC1(C(F)(F)F)OCC(=O)Nc2ccc(Cl)cc21` (stereo not shown) [Example 1, 5-(1-Butynyl)-7-chloro-1,5-dihydro-5-(trifluoromethyl)-4,1-benzoxazepin-2(3H)-one]: 167 to 168 °C; `CCC#CC1(C(F)(F)F)OC(c2ccccc2)C(=O)Nc2ccc(Cl)cc21` [Example 2, rel-(3S,5S)-5-(1-Butynyl)-7-chloro-1,5-dihydro-3-phenyl-5-(trifluormethyl)-4,1-benzoxazepin-2(3H)-one]: 198 to 199 °C.
Consider `CC(C)C#CC1(C(F)(F)F)OCC(=O)Nc2ccc(Cl)cc21` (stereo not shown) [Example 3, 7-Chloro-1,5-dihydro-5-(isopropylethynyl)-5-(trifluoromethyl)-4,1-benzoxazepin-2(3H)-one], for which the melting point was 183 to 183.5 °C.
For the compound `O=C1COC(/C=C/C2CC2)(C(F)(F)F)c2cc(Cl)ccc2N1` (stereo not drawn) [Example 5, trans-7-Chloro-5-(2-cyclopropylethenyl)-1,5-dihydro-5-(trifluoromethyl)-4,1-benzoxazepin-2(3H)-one], the melting point lay in the range of 157 to 158 °C.
As for `CC(C)C#CC1(C(F)(F)F)OCC(=O)Nc2ccc(F)cc21` (stereo not shown) [Example 7, 1,5-Dihydro-7-fluoro-5-isopropylethynyl-5-(trifluoromethyl)-4,1-benzoxazepin-2(3H)-one], the figure is 172 to 173 °C.
`O=C1COC(/C=C/c2ccco2)(C(F)(F)F)c2cc(Cl)ccc2N1` (stereo not drawn) [Example 10, trans-7-Chloro-1,5-dihydro-5-(2-furan-2-yl)ethenyl-5-(trifluoromethyl)-4,1-benzoxazepin-2(3H)-one] had a melting point of 199 to 200 °C.
As for `CC(C)C#CC1(C(F)(F)F)OCC(=O)Nc2ccc(F)c(F)c21` (stereo not shown) [Example 13, 6,7-Difluoro-1,5-dihydro-5-(isopropylethynyl)-5-(trifluoromethyl)-4,1-benzoxazepin-2(3H)-one], the figure is 192.5 to 193.5 °C.
